# Several values for one entry are separate records, joined by “and”; a condition that tells them apart may be missing. Identical values can stand only once. Like-named read-outs stand apart in the source and are kept apart here.
# Assay: Preliminary pharmacokinetics in SD rats
# Type: in vivo
# Parameters: AUC (0-t), individual rats No1-No3 / AUC (0-∞), individual rats No1-No3: concentration or dose not given beside the values
# Experimental: We administered BH by gavage and intravenous administration to SD rats (male, 200–220 g, n = 6) after they had fasted for 12 h. For oral gavage, the BH was dissolved in DMSO/0.5% CMC-Na (5/95, v/v/), and for intravenous administration, it was dissolved in DMSO/0.9% NaCl (5/95, v/v/), and then the blood samples were collected at intervals to determine the pharmacokinetic (PK) profiles of SD rats.
smiles,measurement,setting,value
"CC1=CC(=O)[C@@H](O)[C@]2(C)[C@H]3[C@@H](O)[C@H](O)[C@@]4(CO)OC[C@@]35[C@@H](C[C@@H]12)OC(=O)[C@H](O)[C@]54O [BH, Bruceine H]",concentration at 6 h,"male, SD, rat, plasma, po, 10 mg/kg, p.o. 10 mg/kg, 6 h, read-out: Concentration of BH in rat plasma, Mean",80.5 ng/mL
same,concentration at 6 h,"male, SD, rat, plasma, po, 10 mg/kg, p.o. 10 mg/kg, 6 h, read-out: Concentration of BH in rat plasma, individual rats No1-No3",97.6 ng/mL
same,concentration at 8 h,"male, SD, rat, plasma, po, 10 mg/kg, p.o. 10 mg/kg, 8 h, read-out: Concentration of BH in rat plasma, Mean",42.3 ng/mL
same,concentration at 8 h,"male, SD, rat, plasma, po, 10 mg/kg, p.o. 10 mg/kg, 8 h, read-out: Concentration of BH in rat plasma, individual rats No1-No3",50.4 ng/mL
same,concentration at 12 h,"male, SD, rat, plasma, po, 10 mg/kg, p.o. 10 mg/kg, 12 h, read-out: Concentration of BH in rat plasma, Mean",16.4 ng/mL
same,concentration at 24 h,"male, SD, rat, plasma, po, 10 mg/kg, p.o. 10 mg/kg, 24 h, read-out: Concentration of BH in rat plasma, Mean",3.33 ng/mL
same,AUC(0-t),"male, SD, rat, plasma, po, 10 mg/kg, rat, p.o., read-out: AUC (0-t), Mean",961 ng·h/mL
same,AUC(0-t),"male, SD, rat, plasma, po, 10 mg/kg, rat, p.o., read-out: AUC (0-t), individual rats No1-No3",1070 ng·h/mL
same,AUC(0-inf),"male, SD, rat, plasma, po, 10 mg/kg, rat, p.o., read-out: AUC (0-∞), Mean",976 ng·h/mL
same,concentration at 24 h,"male, SD, rat, plasma, po, 10 mg/kg, rat, p.o., read-out: C_last, Mean",2 ng/mL
same,Cmax,"male, SD, rat, plasma, po, 10 mg/kg, rat, p.o., read-out: Cmax, Mean",147 ng/mL
same,Cmax,"male, SD, rat, plasma, po, 10 mg/kg, rat, p.o., read-out: Cmax, individual rats No2, No3",145 ng/mL
same,MRT inf,"male, SD, rat, plasma, po, 10 mg/kg, rat, p.o., read-out: MRT (0-∞), Mean",5.92 h
same,MRT inf,"male, SD, rat, plasma, po, 10 mg/kg, rat, p.o., read-out: MRT (0-∞), individual rats No1-No3",5.5 h
same,half-life,"male, SD, rat, plasma, po, 10 mg/kg, rat, p.o., read-out: t1/2z, Mean (converted)",3.35 h
same,k el,"male, SD, rat, plasma, po, 10 mg/kg, rat, p.o., read-out: λz, Mean (converted)",6.89e-05 s⁻¹
same,AUC(0-inf),"male, Sprague-Dawley (SD), rat, plasma, iv, 2 mg/kg, rat, i.v., read-out: AUC (0-∞), Mean",1050 ng·h/mL
same,MRT last,"male, Sprague-Dawley (SD), rat, plasma, iv, 2 mg/kg, rat, i.v., read-out: MRT (0-t), Mean",5.01 h
same,MRT last,"male, Sprague-Dawley (SD), rat, plasma, iv, 2 mg/kg, rat, i.v., read-out: MRT (0-t), individual rats No1-No3",4.99 h
same,AUC(0-inf),"male, Sprague-Dawley (SD), rat, plasma, po, 10 mg/kg, rat, p.o., read-out: AUC (0-∞), individual rats No1-No3",1070 ng·h/mL
same,MRT last,"male, Sprague-Dawley (SD), rat, plasma, po, 10 mg/kg, rat, p.o., read-out: MRT (0-t), Mean",5.54 h
same,MRT last,"male, Sprague-Dawley (SD), rat, plasma, po, 10 mg/kg, rat, p.o., read-out: MRT (0-t), individual rats No1-No3",5.47 h
same,bioavailability,"male, rat, plasma, SD rats, 10 mg/kg po vs 2 mg/kg iv, read-out: Oral bioavailability (F)",20.4%
same,Tmax,"male, rat, plasma, SD rats, 10 mg/kg po, read-out: Time of maximum concentration (T max)",1 h
same,"Concentration of BH in rat plasma, individual rats No1-No3","p.o. 10 mg/kg, 0.25 h, 10 mg/kg",10.5 ng/mL and 11.3 ng/mL
same,"Concentration of BH in rat plasma, individual rats No1-No3","p.o. 10 mg/kg, 0.5 h, 10 mg/kg",55.4 ng/mL and 50.6 ng/mL
same,"Concentration of BH in rat plasma, individual rats No1-No3","p.o. 10 mg/kg, 0.75 h, 10 mg/kg",98.5 ng/mL and 104.2 ng/mL
same,"Concentration of BH in rat plasma, individual rats No1-No3","p.o. 10 mg/kg, 1 h, 10 mg/kg",145.3 ng/mL and 140.1 ng/mL
same,"Concentration of BH in rat plasma, individual rats No1-No3","p.o. 10 mg/kg, 2 h, 10 mg/kg",117.7 ng/mL and 120.4 ng/mL
same,"Concentration of BH in rat plasma, individual rats No1-No3","p.o. 10 mg/kg, 4 h, 10 mg/kg",99.4 ng/mL and 89.6 ng/mL
same,"Concentration of BH in rat plasma, individual rats No1-No3","p.o. 10 mg/kg, 6 h, 10 mg/kg",75.3 ng/mL and 68.5 ng/mL
same,"Concentration of BH in rat plasma, individual rats No1-No3","p.o. 10 mg/kg, 8 h, 10 mg/kg",35.4 ng/mL and 41.2 ng/mL
same,"Concentration of BH in rat plasma, individual rats No1-No3","p.o. 10 mg/kg, 12 h, 10 mg/kg",16.8 ng/mL and 10.4 ng/mL and 22.1 ng/mL
same,"Concentration of BH in rat plasma, individual rats No1-No3","p.o. 10 mg/kg, 24 h, 10 mg/kg",2.8 ng/mL and 1.8 ng/mL and 5.4 ng/mL
same,"AUC (0-t), individual rats No1-No3","rat, i.v.",883.761 ng·h/mL and 981.633 ng·h/mL
same,"AUC (0-∞), individual rats No1-No3","rat, i.v.",977.839 ng·h/mL and 1158.837 ng·h/mL
same,"AUMC (0-t), Mean","rat, i.v.",4747.166 h*h*ng/mL
same,"AUMC (0-t), individual rats No1-No3","rat, i.v.",4816.632 h*h*ng/mL and 3928.001 h*h*ng/mL and 5496.865 h*h*ng/mL
same,"AUMC (0-∞), Mean","rat, i.v.",9005.111 h*h*ng/mL
same,"AUMC (0-∞), individual rats No1-No3","rat, i.v.",6587.862 h*h*ng/mL and 7623.703 h*h*ng/mL and 12803.767 h*h*ng/mL
same,"C0, Mean","rat, i.v.",516.231 ng/mL
same,"C0, individual rats No1-No3","rat, i.v.",543.621 ng/mL and 515.672 ng/mL and 489.401 ng/mL
same,"CLz, individual rats No1-No3","rat, i.v.",34.08878 mL/min/kg and 28.76447 mL/min/kg
same,"C_last, individual rats No1-No3","rat, i.v.",6.155 ng/mL and 10.282 ng/mL
same,"MRT (0-t), individual rats No1-No3","rat, i.v.",4.445 h and 5.6 h
same,"MRT (0-∞), individual rats No1-No3","rat, i.v.",7.796 h and 11.049 h
same,"R_AUC (t/∞), Mean","rat, i.v.",89.967%
same,"R_AUC (t/∞), individual rats No1-No3","rat, i.v.",94.8% and 90.4% and 84.7%
same,"VRT (0-t), Mean","rat, i.v.",33.805 h^2
same,"VRT (0-t), individual rats No1-No3","rat, i.v.",30.325 h^2 and 31.091 h^2 and 40 h^2
same,"VRT (0-∞), Mean","rat, i.v.",157.741 h^2
same,"VRT (0-∞), individual rats No1-No3","rat, i.v.",73.322 h^2 and 156.114 h^2 and 243.787 h^2
same,"Vz, individual rats No1-No3","rat, i.v.",31.260167 L/kg and 29.744277 L/kg
same,"t1/2z, individual rats No1-No3","rat, i.v.",10.592 h and 11.943 h
same,"λz, individual rats No1-No3","rat, i.v.",0.065 h⁻¹ and 0.058 h⁻¹
same,"AUC (0-t), individual rats No1-No3","rat, p.o.",858.063 ng·h/mL and 958.688 ng·h/mL
same,"AUC (0-∞), individual rats No1-No3","rat, p.o.",858.682 ng·h/mL and 1001.201 ng·h/mL
same,"AUMC (0-t), Mean","rat, p.o.",5336.656 h*h*ng/mL
same,"AUMC (0-t), individual rats No1-No3","rat, p.o.",5831.875 h*h*ng/mL and 4275.963 h*h*ng/mL and 5902.131 h*h*ng/mL
same,"AUMC (0-∞), Mean","rat, p.o.",5811.834 h*h*ng/mL
same,"AUMC (0-∞), individual rats No1-No3","rat, p.o.",5879.636 h*h*ng/mL and 4292.741 h*h*ng/mL and 7263.126 h*h*ng/mL
same,"CLz, individual rat No1","rat, p.o.",155.9614 mL/min/kg
same,"C_last, individual rats No1-No3","rat, p.o.",0.506 ng/mL and 0.202 ng/mL and 5.305 ng/mL
same,"Cmax, individual rats No2, No3","rat, p.o.",140.1 ng/mL
same,"MRT (0-t), individual rats No1-No3","rat, p.o.",4.983 h and 6.156 h
same,"MRT (0-∞), individual rats No1-No3","rat, p.o.",4.999 h and 7.254 h
same,"R_AUC (t/∞), Mean","rat, p.o.",98.5%
same,"R_AUC (t/∞), individual rats No1-No3","rat, p.o.",99.8% and 99.9% and 95.8%
same,"VRT (0-t), Mean","rat, p.o.",19.306 h^2
same,"VRT (0-t), individual rats No1-No3","rat, p.o.",17.271 h^2 and 15.275 h^2 and 25.371 h^2
same,"VRT (0-∞), Mean","rat, p.o.",29.291 h^2
same,"VRT (0-∞), individual rats No1-No3","rat, p.o.",18.047 h^2 and 15.623 h^2 and 54.204 h^2
same,"Vz, individual rat No1","rat, p.o.",32.202018 L/kg
same,"t1/2z, individual rats No1-No3","rat, p.o.",2.385 h and 2.122 h and 5.553 h
same,"λz, individual rats No1-No3","rat, p.o.",0.291 h⁻¹ and 0.327 h⁻¹ and 0.125 h⁻¹

# Reference: paper PMC9024338, “Bruceine H Mediates EGFR-TKI Drug Persistence in NSCLC by Notch3-Dependent β-Catenin Activating FOXO3a Signaling” (Frontiers in Oncology, 2022)
